Test results: ChEMBL document CHEMBL1201862, “PubChem BioAssay data set” (2004)
Structures can show the parent of a compound that is named as a salt. Calls of active or inactive are those of the source.

Experiments:
[1] = Luminescence Cell-Based Dose Retest to Confirm Inhibitors of Cancer Stem Cells. [Related pubchem assays (depositor defined):AID2717, AID2721]; type: functional; conditions: Homo sapiens
[2] = tested on: Streptococcus; experiment: GAS UMAA2166 growth inhibition – luminescence, BacTiterGlo, counter-screen for streptokinase expression inhibitor project, dose response (AID 1915); type: functional, organism-based;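 note: potency for reduction of bacterial viability or growth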
[3] = molecular target: T1, Streptokinase A (Streptococcus pyogenes serotype M1, UniProt P10520); experiment: viability-normalized secreted streptokinase activity reduction – plasminogen activation absorbance, OD405, dose response (AID 1914); type: functional, Streptococcus pyogenes M1 GAS;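 note: secreted streptokinase activity via plasminogen activation per viability signal from cell pellet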
T1 sequence (P10520 whole entry): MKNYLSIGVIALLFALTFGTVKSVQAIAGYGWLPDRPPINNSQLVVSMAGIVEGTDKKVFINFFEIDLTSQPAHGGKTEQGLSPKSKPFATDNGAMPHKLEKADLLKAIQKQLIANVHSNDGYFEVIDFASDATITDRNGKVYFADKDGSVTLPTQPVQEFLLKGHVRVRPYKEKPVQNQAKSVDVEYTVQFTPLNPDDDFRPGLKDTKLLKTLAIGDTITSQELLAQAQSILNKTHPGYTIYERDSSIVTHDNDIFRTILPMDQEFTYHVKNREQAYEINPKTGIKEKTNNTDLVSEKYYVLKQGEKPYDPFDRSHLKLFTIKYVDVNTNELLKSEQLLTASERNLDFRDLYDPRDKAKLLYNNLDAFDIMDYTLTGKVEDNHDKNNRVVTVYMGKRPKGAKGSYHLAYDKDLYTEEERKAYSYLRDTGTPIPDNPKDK

[4] = molecular target: Trypsin (Sus scrofa, UniProt P00761); experiment: trypsin protease activity blockade – biochemical, quenched peptide fluorescence, cherry-pick, selectivity assay for Rce1 protease inhibitor project, dose response (AID 488789)
[5] = molecular target: CAAX prenyl protease 1 (Saccharomyces cerevisiae S288c, UniProt P47154); experiment: yeast CAAX protease Ste24 inhibition – biochemical, S. cerevisiae, plate reader, cherry-pick, dose response (AID 488815)
[6] = molecular target: T2, CAAX prenyl protease 2 (Saccharomyces cerevisiae S288c, UniProt Q03530); type: biochemical
T2 sequence (Q03530 whole entry): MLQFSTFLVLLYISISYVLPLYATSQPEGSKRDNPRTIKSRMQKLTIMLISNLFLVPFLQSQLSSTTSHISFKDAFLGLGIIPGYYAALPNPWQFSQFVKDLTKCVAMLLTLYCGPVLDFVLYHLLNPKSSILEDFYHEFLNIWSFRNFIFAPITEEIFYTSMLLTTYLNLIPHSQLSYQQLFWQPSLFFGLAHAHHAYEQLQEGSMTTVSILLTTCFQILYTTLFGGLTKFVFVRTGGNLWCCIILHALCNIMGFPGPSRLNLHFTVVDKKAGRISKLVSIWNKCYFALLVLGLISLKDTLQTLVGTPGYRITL

[7] = tested on: Streptococcus sp. 'group A'; experiment: Streptococcus pyogenes SK(-)GAS viability under kanamycin – luminescence, BacTiterGlo, confirmation, counter-screen for streptokinase expression inhibitor project, dose response (AID 1900); type: functional, organism-based
[8] = molecular target: CAAX prenyl protease 2 (Homo sapiens, UniProt Q9Y256); experiment: inhibition of Ras-converting CAAX protease Rce1 – biochemical, yeast membranes, quenched-peptide fluorescence, cherry-pick, dose response (AID 588849)
[9] = molecular target: Serine/threonine-protein phosphatase (Candida dubliniensis (strain CD36 / CBS 7987 / NCPF 3949 / NRRLY-17841) (Yeast), UniProt B9W6M3); experiment: blockers of CaCl2-induced CDRE-lacZ signaling – S. cerevisiae, luminescence, secondary, dose response (AID 2388); type: functional, cell-based;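 note: yeast reporter cells carrying a calcineurin-responsive lacZ construct stimulated with calcium chloride; luminescent beta-galactosidase reporter signal in whole cells rather than isolated phosphatase activity; potency for inhibition where a drop in reporter signal means calcineurin blockade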
[10] = NIH-3T3 fibroblast cytotoxicity, dose response, cytotoxicity control, cell-based, fluorescence, Alamar Blue, secondary assay (AID 2327); type: functional;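 note: NIH-3T3 mouse fibroblasts cultured with fluconazole at 8 µg/mL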
[11] = fluconazole-exposed Candida albicans growth modulators – fluorescence, retest, confirmation (AID 2467); type: functional, cell-based
[12] = molecular target: ATP-dependent molecular chaperone HSP82 (Candida albicans (strain WO-1) (Yeast), UniProt C4YTQ8); experiment: steroid-induced GRE reporter decrease in yeast – S. cerevisiae, luminescence, Hsp90 inhibitor project, dose response (AID 2400); type: functional, cell-based;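 note: beta-galactosidase luminescence from glucocorticoid response element reporter as proxy for Hsp90 function; inhibitor potency where signal loss means Hsp90 inhibition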
[13] = microbe, parasite or virus in culture; type: functional; conditions: Mycobacterium tuberculosis
[14] = molecular target: Caspase-3 (Homo sapiens, UniProt P42574); type: functional;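 note: Dose-response selectivity test against caspase-3 for candidate inhibitors of sentrin-specific proteases (SENPs)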
[15] = molecular target: Sentrin-specific protease 6 (Homo sapiens, UniProt Q9GZR1); type: functional;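 note: Luminescence-based dose-response confirmatory assay of SENP6 inhibition, following up an ultra-high-throughput screen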
[16] = molecular target: Sentrin-specific protease 7 (Homo sapiens, UniProt Q9BQF6); type: functional;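 note: Luminescence-based dose-response confirmation of ultra-high-throughput screening hits, measuring inhibition of SENP7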
[17] = molecular target: T3, Sentrin-specific protease 8 (Homo sapiens, UniProt Q96LD8); type: functional;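 note: luminescence read-out of SENP8 inhibition, dose-response confirmation following an ultra-high-throughput screen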
T3 sequence (Q96LD8 whole entry): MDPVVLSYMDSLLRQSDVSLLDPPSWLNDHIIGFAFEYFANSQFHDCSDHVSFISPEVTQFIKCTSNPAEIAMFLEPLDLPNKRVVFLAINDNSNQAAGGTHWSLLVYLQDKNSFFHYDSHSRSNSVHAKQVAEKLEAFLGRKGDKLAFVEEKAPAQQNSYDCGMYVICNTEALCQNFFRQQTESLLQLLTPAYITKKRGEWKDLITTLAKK

[18] = molecular target: T4, Fatty acid synthase (Homo sapiens, UniProt P49327); experiment: inhibition of human FAS-TE enzyme activity – biochemical, kinetic fluorescence intensity, dose response (AID 624326); type: functional;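 note: rate of fluorescence rise from hydrolysis of a fluorogenic O-methyl fluorescein ester substrate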
[19] = tested on: Vero; experiment: cells; type: functional; conditions: Chlorocebus sabaeus
[20] = molecular target: T4, Fatty acid synthase; experiment: inhibition of human FAS-TE enzyme activity – biochemical, endpoint fluorescence intensity, uHTS hits, dose response (AID 624327); type: functional;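 note: fluorescence from hydrolysis of an O-methyl fluorescein acyl ester substrate by the enzyme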
[21] = molecular target: NS3 (Hepatitis C virus, UniProt A3EZJ3); experiment: PubChem AID 2173; design: species or system Hepacivirus hominis
[22] = mitochondrial function rescue without frataxin homolog – Friedreich's ataxia, plus single-dose screen, dose response (AID 1465); type: functional;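 note: yeast depleted of Yfh1p frataxin homolog grown on glycerol needing respiration; WST-1 tetrazolium dye reduction as measure of cellular dehydrogenase metabolic activity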
[23] = molecular target: 1-phosphatidylinositol 4,5-bisphosphate phosphodiesterase beta-3 (Homo sapiens, UniProt Q01970); experiment: Fluorescence-based biochemical high throughput dose response assay to identify inhibitors of phospholipase C isozymes (PLC-B3).
[24] = molecular target: 1-phosphatidylinositol 4,5-bisphosphate phosphodiesterase gamma-1 (Homo sapiens, UniProt P19174); experiment: Counterscreen for inhibitors of phospholipase C isozymes (PLC-B3): Fluorescence-based biochemical high throughput dose response assay to identify inhibitors of phospholipase C isozymes (PLC-gamma1).
[25] = tested on: Escherichia coli; experiment: microbe, parasite or virus in culture
[26] = molecular target: T5, Rac GTPase-activating protein 1 (Homo sapiens, UniProt Q9H0H5); experiment: blockers of MgcRacGAP-driven Rac1 GTP hydrolysis – biochemical, ADP Hunter fluorescence, primary and confirmatory, confirmation (AID 624330); type: functional
T5 sequence (Q9H0H5 whole entry): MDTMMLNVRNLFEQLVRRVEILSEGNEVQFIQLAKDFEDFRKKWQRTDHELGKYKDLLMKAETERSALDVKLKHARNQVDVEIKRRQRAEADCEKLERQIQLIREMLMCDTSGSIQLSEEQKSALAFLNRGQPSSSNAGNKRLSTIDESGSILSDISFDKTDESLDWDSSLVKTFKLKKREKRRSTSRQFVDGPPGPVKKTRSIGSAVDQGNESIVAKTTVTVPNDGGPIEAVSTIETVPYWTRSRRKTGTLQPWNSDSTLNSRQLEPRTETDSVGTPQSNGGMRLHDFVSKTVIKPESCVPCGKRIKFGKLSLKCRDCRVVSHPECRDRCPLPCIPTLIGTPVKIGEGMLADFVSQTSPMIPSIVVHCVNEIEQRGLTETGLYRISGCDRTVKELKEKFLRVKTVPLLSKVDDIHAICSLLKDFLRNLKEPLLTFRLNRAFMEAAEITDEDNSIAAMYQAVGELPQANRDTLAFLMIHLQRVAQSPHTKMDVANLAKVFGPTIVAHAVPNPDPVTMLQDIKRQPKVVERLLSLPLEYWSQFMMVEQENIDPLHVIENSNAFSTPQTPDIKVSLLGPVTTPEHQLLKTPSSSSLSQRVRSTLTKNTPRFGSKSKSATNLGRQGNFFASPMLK

[27] = tested on: Escherichia coli; experiment: microbe, parasite or virus in culture; remark: listed apart in the source

Chain of CAAX prenyl protease 2 (Homo sapiens, UniProt Q9Y256) (Q9Y256 whole entry): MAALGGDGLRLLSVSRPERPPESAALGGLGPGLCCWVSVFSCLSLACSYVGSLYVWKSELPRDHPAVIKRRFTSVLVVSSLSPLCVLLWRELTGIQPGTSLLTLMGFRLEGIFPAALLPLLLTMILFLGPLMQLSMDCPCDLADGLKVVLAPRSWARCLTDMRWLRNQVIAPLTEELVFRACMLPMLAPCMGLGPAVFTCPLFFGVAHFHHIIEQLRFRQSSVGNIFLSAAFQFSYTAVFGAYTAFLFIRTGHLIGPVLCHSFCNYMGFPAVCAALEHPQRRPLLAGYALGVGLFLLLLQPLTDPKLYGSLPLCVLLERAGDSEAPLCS
Chain of ATP-dependent molecular chaperone HSP82 (C4YTQ8 whole entry): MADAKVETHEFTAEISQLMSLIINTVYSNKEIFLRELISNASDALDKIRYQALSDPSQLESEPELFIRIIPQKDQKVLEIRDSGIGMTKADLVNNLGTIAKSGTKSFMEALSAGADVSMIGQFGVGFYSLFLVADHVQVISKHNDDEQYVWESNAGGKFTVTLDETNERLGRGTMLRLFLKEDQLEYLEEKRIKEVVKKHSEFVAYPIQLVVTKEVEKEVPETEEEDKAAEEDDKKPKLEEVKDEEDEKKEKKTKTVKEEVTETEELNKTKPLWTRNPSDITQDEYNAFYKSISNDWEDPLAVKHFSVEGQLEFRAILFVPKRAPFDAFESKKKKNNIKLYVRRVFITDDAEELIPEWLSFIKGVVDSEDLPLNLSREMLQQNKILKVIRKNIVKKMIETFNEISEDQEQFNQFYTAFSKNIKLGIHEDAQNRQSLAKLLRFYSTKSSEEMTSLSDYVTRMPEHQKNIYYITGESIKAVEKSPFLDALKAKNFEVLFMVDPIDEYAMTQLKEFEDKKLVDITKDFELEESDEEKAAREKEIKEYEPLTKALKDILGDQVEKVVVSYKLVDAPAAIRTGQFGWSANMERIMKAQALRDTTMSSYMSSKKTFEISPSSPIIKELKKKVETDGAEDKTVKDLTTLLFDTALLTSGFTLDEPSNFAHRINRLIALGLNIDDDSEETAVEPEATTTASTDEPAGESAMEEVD
T4 sequence (P49327 whole entry): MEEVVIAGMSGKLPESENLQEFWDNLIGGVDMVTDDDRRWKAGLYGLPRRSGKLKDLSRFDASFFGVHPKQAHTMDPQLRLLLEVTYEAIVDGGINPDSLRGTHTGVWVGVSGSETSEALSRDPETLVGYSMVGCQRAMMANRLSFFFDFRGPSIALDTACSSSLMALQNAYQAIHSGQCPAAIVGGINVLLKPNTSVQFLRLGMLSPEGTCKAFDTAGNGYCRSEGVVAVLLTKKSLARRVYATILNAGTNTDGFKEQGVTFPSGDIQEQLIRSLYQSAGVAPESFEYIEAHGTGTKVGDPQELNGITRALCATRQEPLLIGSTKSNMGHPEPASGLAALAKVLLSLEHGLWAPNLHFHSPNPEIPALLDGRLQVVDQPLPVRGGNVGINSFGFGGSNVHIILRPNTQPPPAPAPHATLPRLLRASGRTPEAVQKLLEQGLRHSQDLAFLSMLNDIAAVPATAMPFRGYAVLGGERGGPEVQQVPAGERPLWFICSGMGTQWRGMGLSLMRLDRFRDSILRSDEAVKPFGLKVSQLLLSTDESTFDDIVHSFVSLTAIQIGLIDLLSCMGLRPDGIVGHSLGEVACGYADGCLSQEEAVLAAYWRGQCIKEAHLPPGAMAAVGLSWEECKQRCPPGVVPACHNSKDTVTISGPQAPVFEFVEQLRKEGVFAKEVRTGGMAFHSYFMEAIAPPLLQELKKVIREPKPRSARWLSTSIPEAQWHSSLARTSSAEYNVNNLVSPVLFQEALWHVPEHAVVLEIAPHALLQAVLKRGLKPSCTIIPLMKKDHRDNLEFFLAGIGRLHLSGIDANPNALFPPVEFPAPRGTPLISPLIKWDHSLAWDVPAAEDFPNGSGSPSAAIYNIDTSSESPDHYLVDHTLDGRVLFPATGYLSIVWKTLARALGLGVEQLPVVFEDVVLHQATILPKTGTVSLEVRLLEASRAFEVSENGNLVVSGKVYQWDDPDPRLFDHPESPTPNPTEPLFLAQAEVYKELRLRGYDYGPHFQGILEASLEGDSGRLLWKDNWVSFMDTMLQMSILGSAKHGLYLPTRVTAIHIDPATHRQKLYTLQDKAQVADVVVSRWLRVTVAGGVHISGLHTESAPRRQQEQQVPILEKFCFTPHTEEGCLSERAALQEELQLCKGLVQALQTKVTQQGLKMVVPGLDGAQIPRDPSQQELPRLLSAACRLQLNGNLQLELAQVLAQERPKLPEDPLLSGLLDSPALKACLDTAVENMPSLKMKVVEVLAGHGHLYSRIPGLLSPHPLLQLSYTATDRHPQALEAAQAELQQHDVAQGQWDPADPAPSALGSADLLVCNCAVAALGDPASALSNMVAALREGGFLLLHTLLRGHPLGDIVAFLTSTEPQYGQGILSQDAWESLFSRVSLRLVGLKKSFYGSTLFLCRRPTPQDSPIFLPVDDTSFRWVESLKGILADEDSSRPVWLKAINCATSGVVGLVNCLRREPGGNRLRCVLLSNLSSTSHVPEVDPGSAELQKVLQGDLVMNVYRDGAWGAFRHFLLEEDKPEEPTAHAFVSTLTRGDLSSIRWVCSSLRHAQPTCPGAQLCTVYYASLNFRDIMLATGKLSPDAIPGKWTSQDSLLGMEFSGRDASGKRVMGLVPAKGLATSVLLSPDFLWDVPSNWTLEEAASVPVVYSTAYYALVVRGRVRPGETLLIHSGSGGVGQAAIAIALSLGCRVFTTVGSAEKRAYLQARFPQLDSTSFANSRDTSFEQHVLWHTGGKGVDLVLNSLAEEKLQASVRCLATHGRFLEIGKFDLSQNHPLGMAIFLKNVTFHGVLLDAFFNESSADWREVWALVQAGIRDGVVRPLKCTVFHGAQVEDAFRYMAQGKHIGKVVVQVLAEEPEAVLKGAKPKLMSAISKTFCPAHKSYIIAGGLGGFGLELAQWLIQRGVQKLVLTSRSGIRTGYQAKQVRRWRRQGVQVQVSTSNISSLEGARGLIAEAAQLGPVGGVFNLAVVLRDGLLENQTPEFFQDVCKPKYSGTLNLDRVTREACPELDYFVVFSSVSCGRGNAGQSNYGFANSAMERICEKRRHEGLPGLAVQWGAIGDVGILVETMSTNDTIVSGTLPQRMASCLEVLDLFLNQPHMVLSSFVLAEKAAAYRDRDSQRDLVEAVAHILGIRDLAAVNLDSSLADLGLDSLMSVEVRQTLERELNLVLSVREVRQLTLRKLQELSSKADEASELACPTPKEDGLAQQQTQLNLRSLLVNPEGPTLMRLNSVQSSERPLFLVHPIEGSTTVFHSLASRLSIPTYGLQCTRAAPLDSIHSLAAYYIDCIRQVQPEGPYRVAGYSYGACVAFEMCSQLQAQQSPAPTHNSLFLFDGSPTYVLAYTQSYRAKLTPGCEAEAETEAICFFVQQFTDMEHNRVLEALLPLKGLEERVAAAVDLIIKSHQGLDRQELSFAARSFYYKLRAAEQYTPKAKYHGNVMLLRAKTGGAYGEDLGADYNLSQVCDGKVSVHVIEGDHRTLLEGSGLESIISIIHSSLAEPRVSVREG
Chain of Serine/threonine-protein phosphatase (B9W6M3 whole entry): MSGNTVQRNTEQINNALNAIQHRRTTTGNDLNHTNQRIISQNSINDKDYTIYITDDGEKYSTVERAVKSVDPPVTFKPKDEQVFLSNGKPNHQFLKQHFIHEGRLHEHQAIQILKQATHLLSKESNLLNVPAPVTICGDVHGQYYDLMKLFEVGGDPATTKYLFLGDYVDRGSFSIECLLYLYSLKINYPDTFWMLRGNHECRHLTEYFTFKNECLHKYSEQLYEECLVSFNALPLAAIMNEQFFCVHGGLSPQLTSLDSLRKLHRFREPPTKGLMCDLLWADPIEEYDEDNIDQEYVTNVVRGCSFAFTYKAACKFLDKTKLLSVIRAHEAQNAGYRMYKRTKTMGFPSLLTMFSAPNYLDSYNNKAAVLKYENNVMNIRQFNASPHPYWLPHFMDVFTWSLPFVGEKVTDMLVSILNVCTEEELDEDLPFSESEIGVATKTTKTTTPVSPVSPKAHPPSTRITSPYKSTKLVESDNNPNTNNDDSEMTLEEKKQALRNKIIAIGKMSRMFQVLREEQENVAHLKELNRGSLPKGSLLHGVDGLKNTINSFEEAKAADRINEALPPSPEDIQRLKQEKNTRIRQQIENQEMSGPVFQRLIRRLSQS
Chain of Trypsin (P00761 whole entry): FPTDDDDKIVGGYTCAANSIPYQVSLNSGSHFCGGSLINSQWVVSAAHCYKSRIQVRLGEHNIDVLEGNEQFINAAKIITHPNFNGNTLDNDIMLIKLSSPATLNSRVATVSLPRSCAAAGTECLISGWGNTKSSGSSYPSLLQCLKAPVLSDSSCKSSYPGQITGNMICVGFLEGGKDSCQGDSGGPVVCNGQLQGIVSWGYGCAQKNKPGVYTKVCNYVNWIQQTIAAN
Chain of Caspase-3 (P42574 29-175 limits assumed): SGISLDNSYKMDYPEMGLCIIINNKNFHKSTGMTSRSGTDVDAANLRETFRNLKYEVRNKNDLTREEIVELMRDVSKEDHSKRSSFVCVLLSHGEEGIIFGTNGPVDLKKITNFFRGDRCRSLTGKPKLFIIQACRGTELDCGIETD
Chain of Caspase-3 (P42574 176-277 limits assumed): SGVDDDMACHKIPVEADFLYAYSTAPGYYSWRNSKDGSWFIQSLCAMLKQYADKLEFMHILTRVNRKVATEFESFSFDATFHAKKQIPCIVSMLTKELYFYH

SMILES | EC50 [2] | AC50 [4] | AC50 [6] | EC50 [7] | AC50 [8] | EC50 [9] | EC50 [10] | EC50 [11] | EC50 [12] | also measured
Cc1cccc(-c2oc3ccccc3c2C#CCCCCO)c1 | 7.64 µM (active) | 3.53 µM (active) | 7.08 µM (active) | 4.57 µM (active) | 12.9 µM (active) |  |  |  |  | AC50 [1]: 6.31 µM (active); EC50 [3]: > 150 µM (not active); AC50 [5]: 3.56 µM (active)
Cc1c(Cl)ccc2c1NC(=O)[C@]21N[C@@H](Cc2ccccc2)[C@H]2C(=O)N(c3ccc(F)cc3)C(=O)[C@H]21 |  |  |  |  |  | > 180 µM (inactive) | > 150 µM (inactive) | 0.206 µM (active) | > 160 µM (inactive) | CC50 [13]: 33 µM (active)
Cc1ccc(OCc2nc(-c3ccccc3)no2)cc1 |  |  |  |  |  |  |  |  |  | IC50 [14]: 42.1 µM (active); IC50 [15]: 47.1 µM (active); IC50 [16]: 11.6 µM (active); IC50 [17]: 69.9 µM (active)
CCOc1ccc(S(=O)(=O)Nc2cc(OC)c(OC)cc2C(=O)O)cc1 |  | 7.53 µM (active) | 9.8 µM (active) |  | 4.23 µM (active) |  |  |  |  | 
O=C(Nc1nnc(-c2ccc(F)cc2)o1)c1cccc([N+](=O)[O-])c1 |  |  |  |  |  | > 180 µM (inactive) | > 150 µM (inactive) | 0.601 µM (active) | > 150 µM (inactive) | IC50 [18]: 9.09 µM (active); CC50 [19]: 11.4 µM (active); IC50 [20]: 11.9 µM (active)
C=C1c2cccc(O)c2C(=O)C2=C(O)[C@]3(O)C(=O)C(C(N)=O)=C(O)[C@@H](N(C)C)[C@@H]3[C@@H](O)[C@H]12 [METHACYCLINE HYDROCHLORIDE] | 0.109 µM (active) |  |  | 0.099 µM (active) |  |  |  |  |  | IC50 [21]: > 109 µM (not active); EC50 [22]: > 100 µM (active); IC50 [23]: > 122 µM (inactive); IC50 [24]: > 122 µM (inactive); AC50 [25]: 29.5 µM (active); IC50 [26]: 66.8 µM (active); AC50 [27]: 0.707 µM (active)
